For assay [1], the species on record is Rattus norvegicus. In words: Potency by rat pressor assay. Type of assay: functional.
The species entered for assay [2] is Gallus gallus. The assay is described as follows: Potency by avian vasodepressor assay.
The species named for assay [3] is Rattus norvegicus. In words: Potency by rat antidiuretic assay. Type of assay: functional, Urine.

As for `CC[C@H](C)[C@@H]1NC(=O)[C@H](Cc2ccc(O)cc2)NC(=O)[C@@H](N)CSSC[C@@H](C(=O)N2CCC[C@H]2C(=O)N[C@@H](CC(C)C)C(=O)NCC(=O)N(C)C)NC(=O)[C@H](CC(N)=O)NC(=O)[C@H](CCC(N)=O)NC1=O`, the results for the Potency in assay [1], in assay [2] and in assay [3] were less than 0.01 mg, less than 0.07 mg and 0.096 mg, respectively.

For the origin of these results see ChEMBL document CHEMBL1121462, “Effect of changing the COOH-terminal amide group present in the hydrophilic cluster of oxytocin to dimethylamide” (1980).
